Ten substances from ChEMBL document CHEMBL5346873, “Strategic modification of low-activity natural antimicrobial peptides confers antibacterial potential in vitro and in vivo” (Eur J Med Chem, 2023) can be followed below.

Series [1] is described as follows: Hemolytic activity in human RBC at 100 ug/ml incubated for 1 hr. The series is classed as toxicity, cell-based, Erythrocyte. As to conditions: human red blood cells (erythrocytes), at 100 µg/mL, read-out: Activity.
For series [2], the system named is Staphylococcus aureus. The series is described as follows: Bactericidal activity against Staphylococcus aureus incubated for overnight. The class given is functional.
Series [3] has as its system Acinetobacter baumannii. Kind of series: Bactericidal activity against Acinetobacter baumannii incubated for overnight. The series is classed as functional.
Series [4] relates to Vibrio vulnificus. Kind of series: Antibacterial activity against Vibrio vulnificus V1 incubated for 16 to 20 hrs. The series is classed as functional. The conditions noted are these: time 16-20 hrs.
Series [5] concerns Salmonella typhimurium. Kind of series: Antibacterial activity against Salmonella typhimurium incubated for 16 to 20 hrs. The conditions noted are these: Salmonella enterica; time 16-20 hrs. The class given is functional, Salmonella enterica subsp. enterica serovar Typhimurium.
The subject of series [6] is Vibrio anguillarum. The series is described as follows: Antibacterial activity against Listonella anguillarum incubated for 16 to 20 hrs. The series is classed as functional. The conditions noted are these: time 16-20 hrs.
The test system of series [7] is Aeromonas hydrophila. Kind of series: Antibacterial activity against Aeromonas hydrophila incubated for 16 to 20 hrs. The series is classed as functional. The conditions noted are these: time 16-20 hrs.
The subject of series [8] is Klebsiella aerogenes. Kind of series: Antibacterial activity against Enterobacter aerogenes incubated for 16 to 20 hrs. The series is classed as functional. The conditions noted are these: time 16-20 hrs.
Series [9] concerns Edwardsiella tarda. Kind of series: Antibacterial activity against Edwardsiella tarda incubated for 16 to 20 hrs. The conditions noted are these: time 16-20 hrs. The class given is functional.
The test system of series [10] is Edwardsiella tarda. Kind of series: Bactericidal activity against Edwardsiella tarda incubated overnight. The series is classed as functional.
In series [11] the test system is Enterococcus faecalis. The series is described as follows: Antibacterial activity against Enterococcus faecalis incubated for 16 to 20 hrs. The series is classed as functional. As to conditions: time 16-20 hrs.
The subject of series [12] is Vibrio vulnificus. Kind of series: Bactericidal activity against Vibrio vulnificus 204 incubated overnight. The series is classed as functional.
The subject of series [13] is Staphylococcus haemolyticus. Kind of series: Bactericidal activity against Staphylococcus haemolyticus incubated overnight. The series is classed as functional.
Series [14] relates to Streptococcus iniae. The series is described as follows: Antibacterial activity against Streptococcus iniae incubated for 16 to 20 hrs. The series is classed as functional. As to conditions: time 16-20 hrs.
Series [15] concerns Klebsiella aerogenes. Kind of series: Bactericidal activity against Enterobacter aerogenes incubated overnight. The class given is functional.
Series [16] relates to Vibrio vulnificus. Kind of series: Antibacterial activity against Vibrio vulnificus 204 incubated for 16 to 20 hrs. The class given is functional. As to conditions: time 16-20 hrs.
Series [17] concerns Vibrio vulnificus. The series is described as follows: Bactericidal activity against Vibrio vulnificus V2 incubated overnight. The series is classed as functional.
For series [18], the system named is Salmonella typhimurium. The series is described as follows: Bactericidal activity against Salmonella typhimurium incubated overnight. The series is classed as functional, Salmonella enterica subsp. enterica serovar Typhimurium. The conditions noted are these: Salmonella enterica.
Series [19] relates to Vibrio vulnificus. Kind of series: Bactericidal activity against Vibrio vulnificus V1 incubated overnight. The series is classed as functional.
Series [20] has as its system Vibrio anguillarum. The series is described as follows: Bactericidal activity against Listonella anguillarum incubated overnight. The class given is functional.
Series [21] concerns Vibrio vulnificus. The series is described as follows: Bactericidal activity against Vibrio vulnificus V3 incubated overnight. The series is classed as functional.
In series [22] the test system is Nakaseomyces glabratus. Kind of series: Fungicidal activity against Candida glabrata incubated overnight. The class given is functional.
Series [23] has as its system Klebsiella oxytoca. The series is described as follows: Antibacterial activity against Klebsiella oxytoca incubated for 16 to 20 hrs. The series is classed as functional. As to conditions: time 16-20 hrs.
Series [24] deals with Pseudomonas aeruginosa. Kind of series: Bactericidal activity against Pseudomonas aeruginosa incubated overnight. The series is classed as functional.
Series [25] deals with Vibrio alginolyticus. Kind of series: Bactericidal activity against Vibrio alginolyticus incubated overnight. The class given is functional.
Series [26] concerns Candida tropicalis. Kind of series: Antifungal activity against Candida tropicalis incubated for 16 to 20 hrs. The class given is functional. The conditions noted are these: time 16-20 hrs.
The test system of series [27] is Vibrio harveyi. Kind of series: Antibacterial activity against Vibrio harveyi incubated for 16 to 20 hrs. The conditions noted are these: time 16-20 hrs. The series is classed as functional.
The test system of series [28] is Vibrio vulnificus. Kind of series: Antibacterial activity against Vibrio vulnificus V2 incubated for 16 to 20 hrs. The series is classed as functional. As to conditions: time 16-20 hrs.
The test system of series [29] is Staphylococcus haemolyticus. Kind of series: Antibacterial activity against Staphylococcus haemolyticus incubated for 16 to 20 hrs. The class given is functional. As to conditions: time 16-20 hrs.
Series [30] relates to Klebsiella pneumoniae. Kind of series: Bactericidal activity against NDM Klebsiella pneumoniae incubated overnight. The class given is functional.
For series [31], the system named is Aeromonas hydrophila. The series is described as follows: Bactericidal activity against Aeromonas hydrophila incubated overnight. The series is classed as functional.
The test system of series [32] is Klebsiella oxytoca. The series is described as follows: Bactericidal activity against Klebsiella oxytoca incubated overnight. The series is classed as functional.
Series [33] relates to Nakaseomyces glabratus. Kind of series: Antifungal activity against Candida glabrata incubated for 16 to 20 hrs. As to conditions: time 16-20 hrs. The class given is functional.
Series [34] concerns Pseudomonas aeruginosa. The series is described as follows: Antibacterial activity against Pseudomonas aeruginosa incubated for 16 to 20 hrs. As to conditions: time 16-20 hrs. The series is classed as functional.
The subject of series [35] is Escherichia coli. The series is described as follows: Antibacterial activity against Escherichia coli incubated for 16 to 20 hrs. The class given is functional. The conditions noted are these: time 16-20 hrs.
Series [36] deals with Klebsiella pneumoniae. The series is described as follows: Antibacterial activity against NDM Klebsiella pneumoniae incubated for 16 to 20 hrs. The class given is functional. As to conditions: time 16-20 hrs.
The subject of series [37] is Streptococcus agalactiae. Kind of series: Bactericidal activity against Streptococcus agalactiae incubated overnight. The class given is functional.
Series [38] relates to Vibrio alginolyticus. Kind of series: Antibacterial activity against Vibrio alginolyticus incubated for 16 to 20 hrs. The class given is functional. The conditions noted are these: time 16-20 hrs.
For series [39], the system named is Enterococcus faecium. Kind of series: Bactericidal activity against Enterococcus faecium incubated overnight. The class given is functional.
For series [40], the system named is Enterococcus faecalis. The series is described as follows: Bactericidal activity against Enterococcus faecalis incubated overnight. The class given is functional.
Series [41] concerns Escherichia coli. The series is described as follows: Bactericidal activity against Escherichia coli incubated overnight. The series is classed as functional.
Series [42] deals with Vibrio vulnificus. Kind of series: Antibacterial activity against Vibrio vulnificus V3 incubated for 16 to 20 hrs. As to conditions: time 16-20 hrs. The class given is functional.
Series [43] concerns Streptococcus agalactiae. The series is described as follows: Antibacterial activity against Streptococcus agalactiae incubated for 16 to 20 hrs. The series is classed as functional. As to conditions: time 16-20 hrs.
The subject of series [44] is Vibrio harveyi. Kind of series: Bactericidal activity against Vibrio harveyi incubated overnight. The series is classed as functional.
The subject of series [45] is Streptococcus iniae. Kind of series: Bactericidal activity against Streptococcus iniae incubated overnight. The series is classed as functional.
Series [46] has as its system Candida tropicalis. Kind of series: Fungicidal activity against Candida tropicalis incubated overnight. The series is classed as functional.
Series [47] relates to Salmonella enterica. The series is described as follows: Bactericidal activity against Salmonella enterica incubated overnight. The series is classed as functional.
Series [48] deals with Enterococcus faecium. The series is described as follows: Antibacterial activity against Enterococcus faecium incubated for 16 to 20 hrs. The series is classed as functional. As to conditions: time 16-20 hrs.
Series [49] has as its system Salmonella enterica. The series is described as follows: Antibacterial activity against Salmonella enterica incubated for 16 to 20 hrs. The class given is functional. As to conditions: time 16-20 hrs.

As to H-FKWKSVLKIVKIFVKIYF-OH, the hemolysis at 1 h, 100 ug/ml in series [1] turned out to be 14.2%. The figures for the MBC in [2] and in series [3] were greater than 100 µg/mL and 12.5 µg/mL, respectively.
On to H-GECIWDAIFHGAKHFLHRLVNP-OH, for which the hemolysis at 1 h, 100 ug/ml in series [1] was found to be 28.5%. For the same substance, the MBC in [2] and in series [3] was greater than 100 µg/mL each time.
With H-GKCIAKAIFKGAKKFLKKLVNP-OH, the hemolysis at 1 h, 100 ug/ml in series [1] was 16.7%. The MBC is greater than 100 µg/mL in series [2] and 3.12 µg/mL in series [3].
For H-GKCIAKAIFKGAKKLLKKLVNP-OH, in that order: 25.8%, 100 µg/mL and 3.12 µg/mL.
For H-GKCIAKAILKGAKKLLKKLVNP-OH, in that order: 31.8%, 100 µg/mL and 1.56 µg/mL.
For H-GKCIWKAIFKGAKKFLKKLVNP-OH, in that order: 72.4%, 50 µg/mL and 1.56 µg/mL.
As for H-KKCIAKAILKKADDLLDDLVNP-OH, the hemolysis at 1 h, 100 ug/ml in series [1] came to 0%. Besides, the MBC in [2] and in [3] was greater than 100 µg/mL each time.
In the case of H-KKCIAKAILKKAKDLLDDLVNP-OH, the hemolysis at 1 h, 100 ug/ml in [1] is 0%. The MBC in series [2] was greater than 100 µg/mL; in [3] it was 50 µg/mL.
For H-KKCIAKAILKKAKKLLDDLVNP-OH, in that order: 0%, greater than 100 µg/mL and 6.25 µg/mL.
With H-KKCIAKAILKKAKKLLKDLVNP-OH, the minimum inhibitory concentration (MIC) in series [4] was 12.5 µg/mL; in series [5] it was 100 µg/mL; in [6], 50 µg/mL; in series [7], greater than 100 µg/mL; in series [8], 12.5 µg/mL; in series [9] it was greater than 100 µg/mL. Besides, the MIC was 50 µg/mL in series [11]; 3.12 µg/mL in series [14]; 12.5 µg/mL in series [16]; 50 µg/mL in series [23]; greater than 100 µg/mL in series [26]; greater than 100 µg/mL in series [27]. Also, the minimum inhibitory concentration (MIC) was 12.5 µg/mL in [28]; less than 1.56 µg/mL in series [29]; greater than 100 µg/mL in [33]; 100 µg/mL in [34]; 50 µg/mL in [35]; 50 µg/mL in series [36]. Also, the minimal inhibitory concentration (MIC) is 6.25 µg/mL in series [38]; 12.5 µg/mL in series [42]; 3.12 µg/mL in [43]; greater than 100 µg/mL in [48]; 25 µg/mL in series [49]. Also, the MBC is greater than 100 µg/mL in [10]; 12.5 µg/mL in series [12]; less than 1.56 µg/mL in series [13]; 12.5 µg/mL in [15]; 12.5 µg/mL in [17]; 100 µg/mL in series [18]. Further, the minimum bactericidal concentration (MBC) is 12.5 µg/mL in [19]; 100 µg/mL in series [20]; 12.5 µg/mL in series [21]; greater than 100 µg/mL in [24]; 6.25 µg/mL in series [25]; 50 µg/mL in [30]. In addition, the MBC is greater than 100 µg/mL in series [31]; 50 µg/mL in series [32]; greater than 100 µg/mL in series [2]; 3.12 µg/mL in [37]; greater than 100 µg/mL in [39]; greater than 100 µg/mL in series [40]. The MBC in series [41] was 50 µg/mL; in series [44] it was greater than 100 µg/mL; in [45] it was 3.12 µg/mL; in series [3], 1.56 µg/mL; in series [47], 25 µg/mL. The MFC in series [22] and in series [46] was greater than 100 µg/mL each time. The hemolysis at 1 h, 100 ug/ml in series [1] was found to be 3.7%.

As a reminder, the MBC is the lowest tested concentration that kills the bacteria rather than only halting them. Read a low MBC as greater bactericidal potency. The MIC is the smallest concentration in the dilution series that meets the test's criterion for growth inhibition. For orientation: MFC means the smallest concentration meeting the test's criterion for killing the fungus. Low readings indicate more potent killing, high ones less potent killing.
